Like-named read-outs stand apart in the source and are kept apart here.
Experiments:
[1] = system: gonadectomized (GDX) male C57BL6 mice; assay: 7-day daily s.c. treatment, androgen-sensitive tissue weights in gonadectomized mice; assay type: in vivo, mouse; details: daily s.c. 7 days, DHT 0.1 mg or THG 0.5 mg; for levator ani muscle weight: versus intact animals; for prostate weight: versus intact controls
From the text: We next used the best recognized in vivo assay to assess the in vivo activity of THG [Labrie, C., A. Bélanger, and F. Labrie, Androgenic activity of dehydroepiandrosterone and androstenedione in the rat ventral prostate. Endocrinology, 1988. 123: p. 1412-1417]. […] The levator ani is an androgen-sensitive muscle [Boissonneault, G., et al., Depressed translational activity in the androgen sensitive levator ani muscle of the rat. J Steroid Biochem, 1989. 32(4): p. 507-13] which has long been recognized as a myotropic marker of the androgenic/anabolic activity of steroids [Eisenberg, S., R. Buie, Jr., and L. Tobian, Jr., Adrenal cortical function in essential hypertension; a study of sweat sodium concentration. Am J Med Sci, 1950. 220(3): p. 287-9].
Eleven- to twelve-week-old male C57BL6 mice obtained from Harlan (Indianapolis, Ind.) were allowed to acclimate for 2 weeks. The animals were housed individually in an environmentally-controlled room (temperature: 22±3° C.; humidity: 50±20%; 12-h light-12-h dark cycles, lights on at 07:15 h). The mice had free access to tap water and a certified rodent feed (Lab Diet 5002 (pellet), Ralston Purina, St-Louis, Mo.). The experiment was conducted in an animal facility approved by the Canadian Council on Animal Care (CCAC) and the Association for Assessment and Accreditation of Laboratory Animal Care (AAALAC). The study was performed in accordance with the CCAC Guide for Care and Use of Experimental Animals.
(§1) Animals weighing between 24.0 and 32.4 g (mean=28.2 g) were randomized according to body weight and were assigned to nineteen groups of 10 animals each. On day 1 of the study, animals were castrated (GDX) under isoflurane anesthesia. All animals were sacrificed 7 days after GDX. […] A GDX-vehicle injected group were used as a control. Eight intact mice of the same strain, age and body weight were sacrificed as described above and tissues were collected, weighed and discarded. The mice sacrificed 2, 4 and 7 days after starting treatment received daily injection of the steroids and were sacrificed 24 h after last injection under isoflurane anesthesia and exsanguinated via cardiac puncture. The prostate (ventral+dorsal), seminal vesicles, preputial glands as well as gastrocnemius and levator ani muscle were collected, freed from adhering tissue or fluid and weighed.

[2] = system: androgen-sensitive genes in levator ani muscle, gastrocnemius muscle and prostate; assay: Microarray gene expression profile in tissues of GDX mice, genes modulated in common with DHT; assay type: in vivo, mouse; details: s.c. 0.5 mg THG vs 0.1 mg DHT, 0.5 h to 7 days
From the text: The genes selected were those identified in common according to the Affymetrix, MAS 5.0 and RMA program [Gautier, L., et al., affy—analysis of Affymetrix GeneChip data at the probe level. Bioinformatics, 2004. 20(3): p. 307-15]. Color scale representing days of fold change due to treatments is shown below the figure.
The selected genes were clustered by Euclidean distance. Columns represents each one of the 790 selected gene and each row a particular treatement group. A pseudo-colored representation of relative intensity is shown such that red indicates high, blue low and yellow unchanged expression, with scale shown at the right.
In the prostate, on the other hand, the classical androgen-sensitive tissue [Labrie, C., A. Bélanger, and F. Labrie, Androgenic activity of dehydroepiandrosterone and androstenedione in the rat ventral prostate. Endocrinology, 1988. 123: p.
as §1, with “The prostate (ventral+dorsal), seminal vesicles, preputial glands as well as gastrocnemius and levator ani muscle were collected, freed from adhering tissue or fluid and weighed.” left out
RNA extraction and microarrays tissues were snap-frozen in liquid nitrogen and kept at −80° C. prior to RNA extraction. […] Scanned images were analyzed with Affymetrix GCOS v1.1 software and with GeneSpring 6.1 software (Silicon Genetics, Redwood City, Calif.) as described [Vasseur, S., et al., Gene expression profiling by DNA microarray analysis in mouse embryonicfibroblasts transformed by rasV12 mutated protein and the E1A oncogene. […]

mouse prostate = assay: Preliminary experiment: stimulation of mouse prostate weight, potency relative to DHT; assay type: in vivo; details: data not shown
From the text: We next used the best recognized in vivo assay to assess the in vivo activity of THG [Labrie, C., A. Bélanger, and F. Labrie, Androgenic activity of dehydroepiandrosterone and androstenedione in the rat ventral prostate. Endocrinology, 1988. 123: p. 1412-1417]. […] Similar observations were made for the preputial gland. The levator ani is an androgen-sensitive muscle [Boissonneault, G., et al., Depressed translational activity in the androgen sensitive levator ani muscle of the rat. J Steroid Biochem, 1989. 32(4): p. 507-13] which has long been recognized as a myotropic marker of the androgenic/anabolic activity of steroids [Eisenberg, S., R. Buie, Jr., and L. Tobian, Jr., Adrenal cortical function in essential hypertension; a study of sweat sodium concentration. Am J Med Sci, 1950. 220(3): p. 287-9].

human androgen receptor = biological target: T1, human androgen receptor (Homo sapiens, UniProt P10275); assay: Androgen receptor (AR) binding assay, displacement of [3H]R1881 (hydroxylapatite method)
T1 construct: expressed in transfected cells; host or cells: HEK-293 cells stably transfected with the pCMV neo-hAR plasmid; the 105 000 x g cytosol was used
T1 sequence (P10275 1-920): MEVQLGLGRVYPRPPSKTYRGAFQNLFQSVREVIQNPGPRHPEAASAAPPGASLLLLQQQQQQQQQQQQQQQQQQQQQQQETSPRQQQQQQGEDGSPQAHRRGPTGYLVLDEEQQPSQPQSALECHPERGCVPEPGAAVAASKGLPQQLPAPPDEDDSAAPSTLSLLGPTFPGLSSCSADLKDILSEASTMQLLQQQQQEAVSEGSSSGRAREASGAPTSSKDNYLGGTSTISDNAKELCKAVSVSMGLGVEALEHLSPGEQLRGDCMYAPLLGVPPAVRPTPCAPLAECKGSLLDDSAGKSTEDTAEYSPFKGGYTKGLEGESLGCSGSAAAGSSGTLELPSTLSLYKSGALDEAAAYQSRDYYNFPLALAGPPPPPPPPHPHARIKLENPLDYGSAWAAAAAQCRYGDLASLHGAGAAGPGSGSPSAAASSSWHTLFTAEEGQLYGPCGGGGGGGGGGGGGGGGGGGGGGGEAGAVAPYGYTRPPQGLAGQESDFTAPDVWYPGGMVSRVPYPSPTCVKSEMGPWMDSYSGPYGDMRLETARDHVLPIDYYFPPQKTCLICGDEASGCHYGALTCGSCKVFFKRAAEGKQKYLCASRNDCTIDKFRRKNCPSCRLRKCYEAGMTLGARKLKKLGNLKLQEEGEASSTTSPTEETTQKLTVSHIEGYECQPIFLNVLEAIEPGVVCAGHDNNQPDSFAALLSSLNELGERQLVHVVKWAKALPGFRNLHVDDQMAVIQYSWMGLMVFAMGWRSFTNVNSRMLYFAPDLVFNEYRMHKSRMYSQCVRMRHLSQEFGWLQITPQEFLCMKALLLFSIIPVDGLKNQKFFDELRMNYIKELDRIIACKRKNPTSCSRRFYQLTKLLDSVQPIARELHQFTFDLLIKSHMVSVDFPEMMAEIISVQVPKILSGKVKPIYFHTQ
Method: The incubation was performed with 3 nM [^3H]R1881 for 16 h at 0-4° C. in the presence or absence of the indicated concentrations of unlabeled compounds.
Androgen Receptor (AR) Assay
Preparation of Human Embryonic Kidney (HEK-293) cells stably Transfected with Human AR (hAR): The pCMV neo-hAR plasmid [Huang, X.-F. and V. Luu-The, Modulation of the androgenic response by recombinant human 11-cis retinol dehydrogenase. J. Steroid Biochem., 2001. 77(2-3): p. 129-133] was transfected into HEK-293 cells using lipofectin transfection kit (Life Technologies, Ontario, Canada), and cells resistant to G418 were isolated as previously described [Dufort, I., et al., Characteristics of a highly labile human type 5 17beta-hydroxysteroid dehydrogenase. Endocrinology, 1999. 140(2): p. 568-574]. On the morning of the binding assay, a pellet of HEK-293 hAR cells was thawed, suspended in buffer, sonicated and centrifuged at 105 000×g for 90 min. The androgen binding assay was performed with the hydroxylapatite (HAP) method [Martel, C., et al., Binding characteristics of novel nonsteroidal antiestrogens to the rat uterine estrogen receptors. J. Steroid Biochem. Mol. Biol., 1998. 64: p. 199-205] using HEK-293 hAR cell cytosol preparation (0.1 ml) and 3 nM [^3H]R1881.

SMILES	preputial gland weight [1]	seminal vesicle weight [1]	levator ani muscle weight [1]	prostate weight [1]	number of genes commonly modulated by DHT and THG in gastrocnemius muscle [2] [genes]	number of genes commonly modulated by DHT and THG in levator ani muscle [2] [genes]	number of genes commonly modulated by DHT and THG in prostate [2] [genes]	potency relative to DHT as stimulator of the weight of the mouse prostate (mouse prostate) [%]	relative potency to displace [3H]R1881 from the human AR (human androgen receptor; 3 nM [3H]R1881, 16 h at 0-4° C., HEK-293 hAR cell cytosol, THG = 1.0)	relative potency to displace [3H]R1881 from the human AR (human androgen receptor)
C[C@]12CCC(=O)C[C@@H]1CC[C@@H]1[C@@H]2CC[C@]2(C)[C@@H](O)CC[C@@H]12 [DHT, dihydrotestosterone, reference compound]	completely reversed the GDX-induced atrophy	completely reversed the GDX-induced atrophy	increased weight of levator ani to values not different from intact animals	completely reversed the GDX-induced atrophy of the prostate						
CC[C@]1(O)CC[C@H]2[C@@H]3CCC4=CC(=O)CCC4=C3C=C[C@@]21CC [THG, tetrahydrogestrinone]	completely reversed the GDX-induced atrophy	completely reversed the GDX-induced atrophy	increased weight of levator ani to values not different from intact animals	reversed the effect of GDX, to a value not statistically different from intact controls	112	790	1121	20	1.0	
C[C@]1(O)CC[C@H]2[C@@H]3CCC4=CC(=O)CCC4=C3C=C[C@@]21C [R1881, methyltrienolone, reference compound]										0.72

Reference: patent US20060045847A1, “Method for determination of anabolic activity” (priority 2004, published 2006)
